For experiment [1], the target named is T1, human 5-HT1A receptor (Homo sapiens, UniProt P08908).
T1 construct: expressed in transfected cells
T1 sequence (P08908 1-422): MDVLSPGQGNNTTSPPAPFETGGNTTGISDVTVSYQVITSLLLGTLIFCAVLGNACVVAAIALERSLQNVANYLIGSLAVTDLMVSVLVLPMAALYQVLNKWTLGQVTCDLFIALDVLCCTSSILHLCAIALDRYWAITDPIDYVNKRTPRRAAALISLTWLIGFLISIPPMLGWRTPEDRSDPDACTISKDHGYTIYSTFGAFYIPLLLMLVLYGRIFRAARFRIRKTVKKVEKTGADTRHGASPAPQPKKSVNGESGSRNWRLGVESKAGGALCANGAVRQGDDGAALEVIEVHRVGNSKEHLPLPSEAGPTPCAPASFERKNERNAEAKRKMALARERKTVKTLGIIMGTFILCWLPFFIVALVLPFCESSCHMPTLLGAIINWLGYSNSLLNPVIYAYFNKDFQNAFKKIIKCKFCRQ
In words: Radioligand binding, [3H]-8-OH-DPAT displacement, HEK-293 cells. The settings on record: mean ± SEM, three independent binding experiments; read-out: Ki [nM] 5-HT1AR. As for the experimental part:
(§1) All experiments were performed in HEK-293 cells, which stably express the human 5-HT1A, 5-HT6, 5-HT7b, and D2L receptors, or using CHO-K1 cells expressing human serotonin 5-HT2A receptor, following the previously reported procedures. For displacement studies, the following radioligands (PerkinElmer, USA) at given concentrations were used at: 2.5 nM [^3H]-8-OH-DPAT (135.2 Ci/ mmol); 1 nM [^3H]-ketanserin (53.4 Ci/mmol); 2 nM [^3H]-LSD (83.6 Ci/mmol); 0.8 nM [^3H]-5-CT (39.2 Ci/mmol) or 2.5 nM [^3H]-raclopride (76.0 Ci/mmol) for 5-HT1A, 5-HT2A, 5-HT6, 5-HT7b and D2L receptors, respectively. All tested compounds were evaluated in triplicate at 7 concentrations (10^−10–10^−4 M). The inhibition constants (Ki) were calculated from the Cheng–Prusoff equation [25]. A detailed description is reported in the Supporting Information.
(§2) 1. Procedure for radioligand binding assay
(§3) All experiments were carried out according to the previously published procedures. HEK293 cells stably expressing human 5-HT1A, 5-HT6, 5-HT7b and D2L receptors (prepared with the use of Lipofectamine 2000) or CHO-K1 cells with plasmid containing the sequence coding for the human serotonin 5-HT2A receptor (Perkin Elmer) were maintained at 37 °C in a humidified atmosphere containing 5% CO2 and grown in Dulbecco’s Modified Eagle’s Medium containing 10% dialyzed fetal bovine serum and 500 μg/ml G418 sulfate. For membrane preparation, cells were cultured in 150 cm2 flasks, grown to 90% confluence, washed twice with pre-warmed to 37 °C phosphate buffered saline (PBS) and centrifuged (200 × g) in PBS containing 0.1 mM EDTA and 1 mM dithiothreitol. Prior to membrane preparation, pellets were stored at –80 °C. […]
(§4) The process of equilibration was terminated by rapid filtration through Unifilter plates with a 96-well cell harvester and radioactivity retained on the filters was quantified on a Microbeta plate reader (PerkinElmer, USA). […] The inhibition constants (Ki) were calculated from the Cheng-Prusoff equation [4].

For experiment [2], the system named is 5-HT6R-operated Cdk5 signaling. Briefly: Cdk5-dependent neurite growth in NG108-15 cells transiently expressing 5-HT6R. Type of experiment: cell-based. The settings on record: NG108-15 cells expressing 5-HT6R; for neurite length: treatment for 24 h (legend says 48 h), vehicle 16.95 ± 1.5 μm. How it is done:
NG108-15 cells were transfected with plasmids encoding either cytosolic GFP or a GFP-tagged 5-HT6R and grown on glass coverslips for 6 h. Then, cells were treated with either vehicle or the evaluated compounds. Neurite growth was measured on cells imaged using an AxioImagerZ1 microscope equipped with epifluorescence (Zeiss) using the Neuron J plugin of the ImageJ software (NIH). A detailed description is reported in the Supporting Information.
3. Procedure for evaluation of the effect of tested compounds on Cdk5-dependent neurite
In line with previously reported methods, NG108-15 cells were transfected with plasmids encoding either cytosolic GFP or a GFP-tagged 5-HT6R in suspension using Lipofectamine 2000 (Life technologies) and plated on glass coverslips. Six hours after transfection, cells were treated with either DMSO (control), 3e, 3f and 3g or SB-258585 for 48 h. Cells were fixed in 4% paraformaldehyde (PFA) supplemented with 4% sucrose for 10 min. PFA fluorescence was quenched by incubating the cells in PBS containing 0.1 M glycine, prior to mounting in Prolong Gold antifade reagent (Thermo Fisher Scientific). Cells were imaged using an AxioImagerZ1 microscope equipped with epifluorescence (Zeiss), using a 20 × objective for cultured cells, and neurite length was assessed using the Neuron J plugin of the ImageJ software (NIH).

The target of experiment [3] is T2, human D2L receptor (Homo sapiens, UniProt P14416).
T2 construct: expressed in transfected cells
In words: Radioligand binding, [3H]-raclopride displacement, HEK-293 cells. The settings on record: mean ± SEM, three independent binding experiments; read-out: Ki [nM] D2. How it is done:
as §1, §2, §3, §4

T2 sequence (P14416 whole entry): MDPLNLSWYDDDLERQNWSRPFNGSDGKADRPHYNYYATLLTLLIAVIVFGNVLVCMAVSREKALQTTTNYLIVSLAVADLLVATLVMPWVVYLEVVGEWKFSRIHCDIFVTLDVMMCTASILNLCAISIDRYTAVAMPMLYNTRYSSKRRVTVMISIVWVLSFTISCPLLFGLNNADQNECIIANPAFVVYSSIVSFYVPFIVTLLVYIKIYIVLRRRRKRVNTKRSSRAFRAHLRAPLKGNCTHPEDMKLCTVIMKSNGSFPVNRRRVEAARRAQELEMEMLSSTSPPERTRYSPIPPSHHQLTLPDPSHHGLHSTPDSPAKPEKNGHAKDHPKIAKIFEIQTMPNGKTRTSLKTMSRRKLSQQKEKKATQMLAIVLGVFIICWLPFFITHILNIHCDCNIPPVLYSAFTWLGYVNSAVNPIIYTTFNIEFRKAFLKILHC

As usually defined, the Ki is a dissociation constant, usually derived from enzyme kinetics or from competition with a known ligand. For the compound `O=S(=O)(c1cccc(N2CCNCC2)c1)N1Cc2ccccc2C1` [3e, 2-{[3-(Piperazin-1-yl)phenyl]sulfonyl}isoindoline], the Ki in experiment [1] is 951 ± 120 nM; in experiment [3], 3420 ± 415 nM. In addition, the neurite length in experiment [2] turned out to be 11.81 ± 2.61 μm.

As for `O=S(=O)(c1cccc(N2CCNCC2)c1)N1Cc2cccc(Cl)c2C1` [3f, 4-Chloro-2-{[3-(piperazin-1-yl)phenyl]sulfonyl}isoindoline], the Ki in experiment [1] worked out at 385 ± 71 nM; in experiment [3], 2030 ± 299 nM. This compound also showed a neurite length in experiment [2] of 10.92 ± 0.89 μm.

`O=S(=O)(c1cccc(N2CCNCC2)c1)N1Cc2cccc(Br)c2C1` [3g, 4-Bromo-2-{[3-(piperazin-1-yl)phenyl]sulfonyl}isoindoline]: the Ki came out at 680 ± 33 nM in experiment [1] and 2440 ± 324 nM in experiment [3]. Further, the “reduction in neurite growth” value in experiment [2] (vs vehicle-treated cells) amounted to 50%. In experiment [2], this compound showed a neurite length of 8.08 ± 0.84 μm. Moreover, in experiment [2] (neurite growth), the “functional profile at the 5-HT6R-elicited Cdk5 pathway” value is “potent inverse agonist”.

These data come from publication PMC9855333, “1-(Arylsulfonyl-isoindol-2-yl)piperazines as 5-HT6R Antagonists: Mechanochemical Synthesis, In Vitro Pharmacological Properties and Glioprotective Activity” (Biomolecules, 2022).
